Values quoted from earlier work as cited in PMC11579209, “Population pharmacokinetics and exposure–response relationships of maribavir in transplant recipients with cytomegalovirus infection” (Journal of Pharmacokinetics and Pharmacodynamics, 2024).

Experiments:
[1] = parameters: method as in PMID 12654667, doi:10.1016/j.bbmt.2018.12.600; details: metabolite of maribavir; cited from earlier work
[2] = system: CMV; parameters: method as in PMID 34674258; details: through Week 24 or Week 14; cited from earlier work

SMILES | Pharmacological activity of metabolite [1] | Exposure dependency of clinically significant CMV infection (CS-CMVi) [2]
Nc1nc2cc(Cl)c(Cl)cc2n1[C@H]1O[C@@H](CO)[C@H](O)[C@@H]1O [VP44469] | pharmacologically inactive | –
COc1cccc(N2CCN(C3=Nc4c(F)cccc4[C@H](CC(=O)O)N3c3cc(C(F)(F)F)ccc3OC)CC2)c1 [letermovir] | – | no significant exposure dependencies
